For assay [1], the target named is T1, aiPLA2 activity of recombinant human Prdx6 (Homo sapiens, UniProt P30041).
T1 sequence (P30041 1-224): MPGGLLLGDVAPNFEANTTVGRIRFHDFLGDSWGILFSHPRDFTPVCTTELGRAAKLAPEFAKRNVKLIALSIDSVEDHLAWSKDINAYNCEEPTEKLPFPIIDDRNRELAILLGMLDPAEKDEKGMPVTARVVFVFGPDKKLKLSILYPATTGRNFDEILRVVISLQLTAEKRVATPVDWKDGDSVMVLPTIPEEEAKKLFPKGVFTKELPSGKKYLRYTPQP
In words: aiPLA2 (PLA2) activity of recombinant human Prdx6 in vitro, 3H-DPPC liposome substrate. In kind it is biochemical. The note with it: for Activity (aiPLA2 of recombinant hPrdx6), human-derived peptides: deletions from 16-aa human-derived SP-A peptide, no-peptide control 92.0; for Activity (aiPLA2 of recombinant hPrdx6), human-derived peptides / Activity (aiPLA2 of recombinant hPrdx6), deletion from C-term / Activity (aiPLA2 of recombinant hPrdx6), deletion from N-term: one assay done in duplicate; for Activity (aiPLA2 of recombinant hPrdx6), deletion from C-term: peptides deleted from C-terminus of 16-aa rat-derived SP-A peptide, and scrambled peptide; for Activity (aiPLA2 of recombinant hPrdx6), deletion from C-term / Activity (aiPLA2 of recombinant hPrdx6), deletion from N-term: no-peptide control 94.8; for Activity (aiPLA2 of recombinant hPrdx6), deletion from N-term: peptides deleted from N-terminus of 16-aa rat-derived SP-A peptide, 3H-DPPC liposomes, 60 min; for Concentration of peptide for inhibition of aiPLA2 activity by 50%: concentration corrected for purity of the PIP preparation, Figure 2, n = 3. The protocol:
The PLA2 activity of Prdx6 was measured as described previously. The substrate was dipalmitoylphosphatidylcholine (DPPC) with ^3H-9,10-palmitate in the sn-2 position of DPPC incorporated into lung surfactant-like liposomes as described above; substrate was incubated with enzyme for 60 min and activity was calculated from the liberation of ^3H-palmitate as measured by scintillation counting.
The effect of the PIP peptides on the aiPLA2 activity of human recombinant Prdx6 was determined by in vitro assay; the effective concentration of inhibitor was corrected for purity of the PIP preparation. Saturating concentrations of all three peptides (PIP-1, PIP-2, PIP-3) inhibited aiPLA2 activity by ~70% (Figure 2). The basis for the remaining 30% of activity that was not inhibited is unclear.

In assay [2] the target is T2, recombinant human peroxiredoxin 6 (Prdx6) (human) (UniProt P30041).
T2 sequence: T1 sequence (P30041 1-224)

For assay [3], the target named is T2, recombinant human peroxiredoxin 6 (Prdx6) (human). This is another data set of the same source.
Assay [4] shares this target. The source holds these as a separate data set.
For assay [5] the target is unchanged. The source holds these as a separate data set.
The target of assay [6] is T3, mouse peroxiredoxin 6 (Prdx6), endogenous in lung homogenate (mouse (endogenous in lung)) (UniProt O08709).
T3 sequence: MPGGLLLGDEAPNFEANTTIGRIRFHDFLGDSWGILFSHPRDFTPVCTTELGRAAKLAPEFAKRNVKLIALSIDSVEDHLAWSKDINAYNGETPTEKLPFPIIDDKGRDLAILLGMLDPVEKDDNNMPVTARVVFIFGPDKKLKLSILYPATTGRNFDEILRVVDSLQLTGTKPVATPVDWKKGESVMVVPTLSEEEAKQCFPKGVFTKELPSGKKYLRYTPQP

Consider “DEELQATLHDFRHQIL [16 aa human SP-A-derived peptide]”, for which the “Activity (aiPLA2 of recombinant hPrdx6), human-derived peptides” value (“Activity … human-derived peptides” for short) in assay [1] stood at 45.0 nmol/min/mg Prot.

For the molecule “DEELQTEL [8-aa C-terminal deletion of rat 16-aa peptide]”, in assay [1], the “Activity (aiPLA2 of recombinant hPrdx6), deletion from C-term” value (from here on “Activity … from C-term”) turned out to be 93.6 nmol/min/mg Prot.

For “DEELQTELYEIKHQ [14-aa C-terminal deletion of rat 16-aa peptide]”, the “Activity … from C-term” value in assay [1] was found to be 102 nmol/min/mg Prot.

In the case of DEELQTELYEIKHQIL, in assay [1], the “Activity … from C-term” value was found to be 32.0 nmol/min/mg Prot and the “Activity (aiPLA2 of recombinant hPrdx6), deletion from N-term” value (“Activity … from N-term” for short) is given as 32.0 nmol/min/mg Prot.

In the case of “ELQTELYEIKHQIL [14-aa N-terminal deletion of rat 16-aa peptide]”, the “Activity … from N-term” value in assay [1] worked out at 33.2 nmol/min/mg Prot.

For the molecule “ELYEIKHQI [9-aa peptide lacking the C-terminal Leu]”, the “Activity … from C-term” value in assay [1] came to 89.6 nmol/min/mg Prot.

On to “ELYEIKHQIL [10-aa N-terminal deletion of rat 16-aa peptide]”, for which the “Activity … from N-term” value in assay [1] was 28.6 nmol/min/mg Prot.

Take “LELDEEITEYQKQLHI [Scrambled peptide, scrambled 16-aa control peptide, reference compound]”: the “Activity … from C-term” value in assay [1] is listed as 93.5 nmol/min/mg Prot.

For the molecule LYDIRHQIL [PIP-3], in assay [1], the “Inhibition of aiPLA2 activity of human recombinant Prdx6” value was ~ 70%. For the same molecule, the “Concentration of peptide for inhibition of aiPLA2 activity by 50%” value in assay [1] (recombinant human Prdx6) is ~ 10 µg/mg Prdx6.

On to LYEIKHQIL [PIP-1], for which, in assay [1], the “Activity … from N-term” value was 32.3 nmol/min/mg Prot. The “Inhibition of aiPLA2 activity at saturating concentrations of peptide” value in assay [1] (recombinant human Prdx6, Figure 2, mean + SEM, n = 3) is recorded as ~ 70%. Moreover, in assay [1] (recombinant human Prdx6), the “Concentration of peptide for inhibition of aiPLA2 activity by 50%” value was ~ 8.3 µg/mg Prdx6.

On to “QTELYEIKHQIL [12-aa N-terminal deletion of rat 16-aa peptide]”, for which the “Activity … from N-term” value in assay [1] worked out at 31.5 nmol/min/mg Prot.

Take “TLHDFRHQI [9-aa human peptide with C-terminal aa deleted]”: the “Activity … human-derived peptides” value in assay [1] amounted to 89.6 nmol/min/mg Prot.

On to “TLHDFRHQIL [10-aa N-terminal deletion of human 16-aa peptide]”, for which, in assay [1], the “Activity … human-derived peptides” value came to 31.5 nmol/min/mg Prot.

Take “YEIKHQIL [8-aa N-terminal deletion of rat 16-aa peptide]”: the “Activity … from N-term” value in assay [1] is 94.4 nmol/min/mg Prot.

B1: PLA2-inhibitory peptide 3 (PIP-3), hybrid of PIP-1 and PIP-2 (peptide)
peptide: LYDIRHQIL
On to B1, for which, in assay [2], the concentration of peptide for inhibition of aiPLA2 activity by 50% amounted to 10 µg/mg Prdx6; the inhibition of the aiPLA2 activity of human recombinant Prdx6 in vitro against peptide concentration, up to saturating concentrations is 70%; the molar stoichiometry of peptide to Prdx6 monomer worked out from the PIP to Prdx6 ratio at maximal inhibition of aiPLA2 activity (peptide to Prdx6 monomer, molar) was 1.5. The inhibition of aiPLA2 activity by the hybrid nine-aa peptide in assay [3] was determined as 70%.

B2: PLA2-inhibitory peptide 1 (PIP-1), rat/mouse SP-A nine-aa peptide (peptide)
peptide: LYEIKHQIL
B2: in assay [4], the aiPLA2 activity of recombinant hPrdx6 with the peptide (no peptide: 94.8; scrambled peptide: 93.5) (nmol/min/mg Prot.) stood at 32.3. Moreover, in assay [2], the concentration of peptide for inhibition of aiPLA2 activity by 50% amounted to 8.3 µg/mg Prdx6; the inhibition of the aiPLA2 activity of human recombinant Prdx6 in vitro against peptide concentration, up to saturating concentrations was 70%; the molar stoichiometry of peptide to Prdx6 monomer worked out from the PIP to Prdx6 ratio at maximal inhibition of aiPLA2 activity (peptide to Prdx6 monomer, molar) was 1.5.

B3: PLA2-inhibitory peptide 2 (PIP-2), human SP-A nine-aa peptide (peptide)
peptide: LHDFRHQIL
B3: the aiPLA2 activity of recombinant hPrdx6 with the peptide (no peptide: 92.0) (nmol/min/mg Prot.) in assay [5] is 29.9. Further, in assay [6], the inhibition of PLA2 activity at pH 4 without Ca2+ (aiPLA2) of wild type mouse lung homogenate after addition of PIP-2 to the assay turned out to be 91%. Besides, in assay [2], the concentration of peptide for inhibition of aiPLA2 activity by 50% was found to be 6.6 µg/mg Prdx6; the inhibition of the aiPLA2 activity of human recombinant Prdx6 in vitro against peptide concentration, up to saturating concentrations stood at 70%; the molar stoichiometry of peptide to Prdx6 monomer worked out from the PIP to Prdx6 ratio at maximal inhibition of aiPLA2 activity (peptide to Prdx6 monomer, molar) is 1.5.

(Values after article PMC6317155, “Identification of Small Peptides that Inhibit NADPH Oxidase (Nox2) Activation” (Antioxidants, 2018).)
